Read-outs that look alike come from different tables or passages of the source.
Legend:
[1] = In vitro reduction by an ascorbic acid salt, half life; type: physicochemical; conditions: 50 μM complex, pH 7.5 (50 mM HEPES-NaOH), 37° C., dark; for Half life (reduction), 5 mM: 5 mM ascorbic acid salt; for Half life (reduction), 100 mM: 100 mM ascorbic acid salt
Description: Test results of the in vitro reduction of the thus obtained complexes by an ascorbic acid salt are shown below in terms of half life.
The measurement was carried out at a complex concentration of 50 μM, pH 7.5 (50 mM HEPES-NaOH buffer), at 37° C. in the dark.

[2] = Stability in an aqueous solution of hydrochloric acid, half life; type: physicochemical; conditions: 37° C., 50 μM complex, in the dark
Description: Stability of each of the thus obtained complexes in an aqueous solution of hydrochloric acid at 37° C. is shown below in terms of its half life.
The measurement was carried out at a complex concentration of 50 μM at 37° C. in the dark.

[3] = system: L 1210; type: in vivo, CDF1 mouse; conditions: days 1, 5 and 9; for T/C %: 125 or more judged effective
Description: ip: On the day 0, L 1210 (10^5 cells/mouse) was transplanted into the abdominal cavity of each CDF1 mouse, and each of the platinum complexes was intraperitoneally administered on the day 1, day 5 and day 9 (Q04D×03). Using 5 animals in one group, T/C % (T: treated, C: control) is calculated from survived days. A T/C % value of 125 or more was judged effective. The number of survived (or tumor bearing) animals is shown as n/5. A total of 10 mice were used in the control.
Carcinostatic effect ip--ip, L 1210, three administrations on days 1, 5 and 9
L 1210 (10^5 cells/mouse), one group=5 CDF1 mice, ip administration on the days 1, 5 and 9.

[4] = system: L 1210; experiment: (Oral) carcinostatic effect L 1210, ip-po; type: in vivo, CDF1 mouse; conditions: Q02D×05, suspension in olive oil, 140% or more judged effective
Description: po: On the day 0, L 1210 (10^5 cells/mouse) was transplanted into the abdominal cavity of each CDF1 mouse, and each of the platinum complexes was orally administered on the day 1, day 3, day 5, day 7 and day 9 (Q02D×05), or on the day 1 to day 5 (Q01D×05). The oral administration was carried out with a 10, 7.5 or 5 times higher dose than the optimum amount of each platinum complex by ip (T/C % of ip; 100 mg/kg, 75 mg/kg or 50 mg/kg, respectively). A value of 140% or more was judged effective.
(Oral) carcinostatic effect L 1210, ip-po, every two days Q02D×05
L 1210 (10^5 cells/mouse); one group=5 CDF1 mice; Suspension in olive oil was administered into the stomach through a catheter.

[5] = Behaviour in strongly acidic gastric juice (1 N HCl, pH 0.1); type: physicochemical; conditions: orally administered
[6] = clinical trial; cited from earlier work

SMILES	Half life (reduction), 5 mM [1]	Half life (reduction), 100 mM [1]	Half life, 0.05 M HCl [2]	Half life, 1 M HCl [2]	T/C % ([3]; 12.5 mg/kg ip)	T/C % ([3]; 25 mg/kg ip)	T/C % ([3]; 50 mg/kg ip)	T/C % ([3]; 100 mg/kg ip)	T/C % ([4]; 5 mg/kg po)	T/C % ([4]; 10 mg/kg po)	T/C % ([4]; 15 mg/kg po)	number of survived (or tumor bearing) animals (n/5) ([3]; 25 mg/kg ip)	T/C % ([4]; 2.5 mg/kg po)	number of survived (or tumor bearing) animals (n/5) ([3]; 50 mg/kg ip)	one carboxylic acid substituted by Cl [5]	clinical development / side effects [6]
CCCC(=O)[O-].NC1CCCCC1N.O=C([O-])C(=O)[O-].[Cl-].[Pt+4] [C4--OHP · Cl, [PtCl(OCOC3 H7) (oxalato) (lR,2R-dach)]]	0.6 h	< 6 min	> 50 h	6.1 h	130%	145%	195%	63%								
CCCCC(=O)[O-].NC1CCCCC1N.O=C([O-])C(=O)[O-].[Br-].[Pt+4] [C5--OHP · Br, t,t,c,c-[PtBr(OCOC4 H9)(ox)(1R,2R-dach)]]						395%	107%		160%	163%	73%	4/5				
CCCCC(=O)[O-].NC1CCCCC1N.O=C([O-])C(=O)[O-].[Cl-].[Pt+4] [C5--OHP · Cl, t,t,c,c-[PtCl(OCOC4 H9)(ox)(1R,2R-dach)]]	0.8 h	< 6 min	> 50 h	7.4 h		168%	283%	88%	214%	143%	60%		140%	4/5		
CCCCCC(=O)[O-].NC1CCCCC1N.O=C([O-])C(=O)[O-].[Br-].[Pt+4] [C6--OHP · Br]						373%	96%	69%	173%	180%	88%	4/5				
CCCCCC(=O)[O-].NC1CCCCC1N.O=C([O-])C(=O)[O-].[Cl-].[Pt+4] [C6--OHP · Cl, [PtCl (OCOC5 H11) (oxalato) (1R,2R-dach)]]	1.2 h	< 6 min	N.D. (significant decrease in concentration was not observed)	8.9 h		173%	280%	80%	191%	168%	98%		143%	1/5		
CCCCCCC(=O)[O-].NC1CCCCC1N.O=C([O-])C(=O)[O-].[Cl-].[Pt+4] [C7--OHP · Cl, [PtCl(OCOC6 H13) (oxalato) (1R,2R-dach)]]	1.6 h	< 6 min	N.D. (significant decrease in concentration was not observed)	11.3 h	122%	137%	176%		129%	151%			117%			
CCCC(=O)[O][Pt]12([O]C(=O)CCC)([NH]C3CCCCC3[NH]1)[O]C(=O)C(=O)[O]2 [Complex C4-OHP, t,c,c-[Pt (OCOC3 H7)2 (ox) (1R,2R-dach)]]															gradually substituted by Cl	
CCCCC(=O)O.CCCCC(=O)O.N[C@@H]1CCCC[C@H]1N.O=C(O)C(=O)O.[Pt] [Complex C5-OHP, t,c,c-[Pt (OCOC4 H9)2 (ox) (1R,2R-dach)]]															gradually substituted by Cl	
CCCCCC(=O)[O-].CCCCCC(=O)[O-].NC1CCCCC1N.O=C([O-])C(=O)[O-].[Pt+4] [Complex C6-ORP, t,c,c-[Pt (OCOC5 H11)2 (ox) (1R,2R-dach)]]															gradually substituted by Cl	
N[C@@H]1CCCC[C@H]1N.[Cl][Pt+2]([Cl])([Cl])[Cl] [tetraplatin]																clinical development has been suspended due to the side effects, such as toxicity

From US6008395A, “Platinum (IV) complex, production process thereof and carcinostatic agent containing the same” (priority 1995, dated 1999)
